Test results as given in patent US9682995B2, “Amino-substituted isothiazoles” (BAYER PHARMA AKTIENGESELLSCHAFT, priority 2013, dated 2017).

Experiments:
[1] = test system: spindle assembly checkpoint; experiment: SAC-Formation - Nocodazole-Induced Assay; format: cell-based; settings: Homo sapiens; HeLa cells, nocodazole 0.1 μg/ml, 24 h, phosphorylated histone H3 on serine 10
Method in brief: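 HeLa cells were given nocodazole at 0.1 μg/ml final together with compounds (0.005–20 μM, 0.5% DMSO) for 24 h at 37° C. Mitotic cells were counted by phospho-histone H3 Ser10 immunostaining, with cell number from HOECHST 33342, by high-content imaging. The loss of mitotic cells was fitted with a four-parameter Hill equation.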

[2] = molecular target: CDK2/CycE (Homo sapiens (Human), UniProt P24941); experiment: CDK2/CycE kinase assay (TR-FRET); format: biochemical; settings: 10 μM ATP; read-out: CDK2 avg (IC50 [mol/l])
Method in brief: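 GST-tagged human CDK2 and GST-CycE from Sf9 cells (~130 ng/ml) were preincubated with compound for 15 min at 22 °C. Reaction with 10 μM ATP and 0.75 μM biotinylated peptide (final) ran 25 min at 22 °C, pH 8.0. Phospho-peptide was read by TR-FRET (665/620 nm ratio, anti-pRB antibody, Eu donor) and normalised to no-enzyme and no-inhibitor controls.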

SMILES | IC50 [1] [nM] | IC50 [2] [µM]
COc1ccc(NC(=O)c2c(C)nsc2Nc2ncc(C(=O)N3CCOCC3)s2)cc1F [Example 93, N-(3-Fluoro-4-methoxyphenyl)-3-methyl-5-{[5-(morpholin-4-ylcarbonyl)-1,3-thiazol-2-yl]amino}-1,2-thiazole-4-carboxamide] | 1400 | > 20
CCOC(=O)c1cnc(Nc2snc(C)c2C(=O)Nc2ccccc2CC)s1 [Example 92, Ethyl 2-({4-[(2-ethylphenyl)-carbamoyl]-3-methyl-1,2-thiazol-5-yl}amino)-1,3-thiazole-5-carboxylate] | 1200 | > 20
CCc1cnc(Nc2snc(C)c2C(=O)Nc2ccc(F)c(F)c2)cn1 [Example 79, N-(3,4-Difluorophenyl)-5-[(5-ethylpyrazin-2-yl)amino]-3-methyl-1,2-thiazole-4-carboxamide] | 140 | > 20
Cc1nsc(Nc2cnc(C(F)(F)F)cn2)c1C(=O)Nc1ccc(F)c(F)c1 [Example 81, N-(3,4-Difluorophenyl)-3-methyl-5-{[5-(trifluoromethyl)pyrazin-2-yl]amino}-1,2-thiazole-4-carboxamide] | 9.7 | > 20
CCNc1cncc(Nc2snc(C)c2C(=O)Nc2ccc(F)c(F)c2)n1 [Example 78, N-(3,4-Difluorophenyl)-5-{[6-(ethylamino)pyrazin-2-yl]amino}-3-methyl-1,2-thiazole-4-carboxamide] | 390 | > 20
Cc1nsc(Nc2cncc(-n3cccn3)n2)c1C(=O)Nc1ccc(Cl)c(F)c1 [Example 67, N-(4-Chloro-3-fluorophenyl)-3-methyl-5-{[6-(1H-pyrazol-1-yl)pyrazin-2-yl]amino}-1,2-thiazole-4-carboxamide] | 12 | –
Cc1nsc(Nc2cncc(C(F)(F)F)n2)c1C(=O)Nc1ccc(F)c(F)c1 [Example 82, N-(3,4-Difluorophenyl)-3-methyl-5-{[6-(trifluoromethyl)pyrazin-2-yl]amino}-1,2-thiazole-4-carboxamide] | 21 | –
Cc1nsc(Nc2cnc(Br)cn2)c1C(=O)Nc1ccc(F)c(F)c1 [Example 77, 5-[(5-Bromopyrazin-2-yl)amino]-N-(3,4-difluorophenyl)-3-methyl-1,2-thiazole-4-carboxamide] | 18 | > 20
Cc1nsc(Nc2cnc(Cl)cn2)c1C(=O)Nc1ccc(F)c(F)c1 [Example 74, 5-[(5-Chloropyrazin-2-yl)amino]-N-(3,4-difluorophenyl)-3-methyl-1,2-thiazole-4-carboxamide] | 29 | > 20
CCc1ccccc1NC(=O)c1c(C)nsc1Nc1nc(C(=O)OC)co1 [Example 91, Methyl 2-({4-[(2-ethylphenyl)carbamoyl]-3-methyl-1,2-thiazol-5-yl}amino)-1,3-oxazole-4-carboxylate] | 4200 | > 20
CCc1ccccc1NC(=O)c1c(C)nsc1Nc1ccncn1 [Example 2, N-(2-Ethylphenyl)-3-methyl-5-(pyrimidin-4-ylamino)-1,2-thiazole-4-carboxamide] | 4200 | > 20
Cc1nsc(Nc2ccc(C(F)(F)F)nn2)c1C(=O)Nc1ccc(F)c(F)c1 [Example 83, N-(3,4-Difluorophenyl)-3-methyl-5-{[6-(trifluoromethyl)pyridazin-3-yl]amino}-1,2-thiazole-4-carboxamide] | 7 | > 20
CCc1ccccc1NC(=O)c1c(C)nsc1Nc1cc(C#N)ccn1 [Example 4, 5-[(4-Cyanopyridin-2-yl)amino]-N-(2-ethylphenyl)-3-methyl-1,2-thiazole-4-carboxamide] | 730 | > 20
CCc1ccccc1NC(=O)c1c(C)nsc1Nc1ncccc1C(F)(F)F [Example 3, N-(2-Ethylphenyl)-3-methyl-5-{[3-(trifluoromethyl)pyridin-2-yl]amino}-1,2-thiazole-4-carboxamide] | 3000 | > 20

The next lines start with the values.

IC50 [1] [nM] | IC50 [2] [µM] | SMILES
52 | > 20 | CCc1cncc(Nc2snc(C)c2C(=O)Nc2ccc(F)c(F)c2)n1 [Example 76, N-(3,4-Difluorophenyl)-5-[(6-ethylpyrazin-2-yl)amino]-3-methyl-1,2-thiazole-4-carboxamide]
350 | > 20 | COc1cncc(Nc2snc(C)c2C(=O)Nc2ccc(F)c(F)c2)n1 [Example 72, N-(3,4-Difluorophenyl)-5-[(6-methoxypyrazin-2-yl)amino]-3-methyl-1,2-thiazole-4-carboxamide]
820 | > 20 | COc1ccc(NC(=O)c2c(C)nsc2Nc2nc3ccc(F)cc3s2)cn1 [Example 88, 5-[(6-Fluoro-1,3-benzothiazol-2-yl)amino]-N-(6-methoxypyridin-3-yl)-3-methyl-1,2-thiazole-4-carboxamide]
530 | > 20 | CCc1ccccc1NC(=O)c1c(C)nsc1Nc1cnc2cc(Cl)ccc2n1 [Example 86, 5-[(6-Chloroquinoxalin-2-yl)amino]-N-(2-ethylphenyl)-3-methyl-1,2-thiazole-4-carboxamide]
6.2 | > 20 | COc1ccc(NC(=O)c2c(C)nsc2Nc2cnc(C(F)(F)F)cn2)cn1 [Example 85, N-(6-methoxypyridin-3-yl)-3-methyl-5-{[5-(trifluoromethyl)pyrazin-2-yl]amino}-1,2-thiazole-4-carboxamide]
260 | > 20 | CCOC(=O)c1sc(Nc2snc(C)c2C(=O)Nc2ccc(Cl)c(F)c2)nc1C [Example 95, Ethyl 2-({4-[(4-chloro-3-fluoro-phenyl)carbamoyl]-3-methyl-1,2-thiazol-5-yl}amino)-4-methyl-1,3-thiazole-5-carboxylate]
49 | > 20 | Cc1nsc(Nc2cnc3cc(C(F)(F)F)ccc3n2)c1C(=O)Nc1ccc(Cl)c(F)c1 [Example 68, N-(4-Chloro-3-fluorophenyl)-3-methyl-5-{[6-(trifluoromethyl)quinoxalin-2-yl]amino}-1,2-thiazole-4-carboxamide]
4200 | > 20 | COc1ccc(NC(=O)c2c(C)nsc2Nc2nc3ccc(C)cc3s2)cn1 [Example 90, N-(6-Methoxypyridin-3-yl)-3-methyl-5-[(6-methyl-1,3-benzothiazol-2-yl)amino]-1,2-thiazole-4-carboxamide]
590 | > 20 | COc1ccc2nc(Nc3snc(C)c3C(=O)Nc3ccc(OC)nc3)sc2c1 [Example 87, 5-[(6-Methoxy-1,3-benzothiazol-2-yl)amino]-N-(6-methoxypyridin-3-yl)-3-methyl-1,2-thiazole-4-carboxamide]
310 | > 20 | Cc1nsc(Nc2cnc3cc(C(F)(F)F)ccc3n2)c1C(=O)Nc1ccc(Cl)c(Cl)c1 [Example 61, N-(3,4-Dichlorophenyl)-3-methyl-5-{[6-(trifluoromethyl)quinoxalin-2-yl]amino}-1,2-thiazole-4-carboxamide]
1400 | > 20 | COc1ccc(NC(=O)c2c(C)nsc2Nc2nc3cccnc3s2)cn1 [Example 89, N-(6-Methoxypyridin-3-yl)-3-methyl-5-([1,3]thiazolo[5,4-b]pyridin-2-ylamino)-1,2-thiazole-4-carboxamide]
